This experiment has as its target T1, Serine/threonine-protein kinase ATR [14-953] (Homo sapiens, UniProt Q13535).
T1 construct: 14-953
Put plainly: ATR Enzyme Assay. The method, then:
In this experiment, the phosphorylation level of substrate protein P53 (Eurofins, 14-952) was detected by HTRF technology to measure the activity of ATR/ATRIP (Eurofins, 14-953) kinase. Reaction buffer (25 mM HEPES pH 8.0, 0.01% Brij-35, 1% Glycerol, 5 mM DTT, 1 mg/mL BSA), termination buffer (12.5 mM HEPES pH 8.0, 0.005% Brij-35, 0.5% Glycerol, 250 mM EDTA) and assay buffer (50 mM HEPES pH 7.0, 150 mM NaCl, 267 mM KF, 0.1% sodium cholate, 0.01% Tween 20) were prepared in advance. ATR/ATRIP was diluted with reaction buffer to a working solution of 2 ng/μL, and the substrate protein P53 was diluted with reaction buffer to a working solution of 80 nM, and […] (Sigma, A2383) working solution (containing 40 mM MnCl2) was prepared with reaction buffer. The compound was 3-fold diluted with DMSO, then diluted with reaction buffer into a working solution, then added to a 384-well plate at 2.5 μL/well, and centrifuged at 1500 rpm for 40 s. Then 2.5 μL of ATR/ATRIP working solution, P53 working solution and ATP working solution were added into the 384-well plate, centrifuged at 1500 rpm for 40 s and reacted at room temperature for 30 minutes.

We go through two compounds from BindingDB's records for patent US20240025899 (Shanghai De Novo Pharmatech, 2024).

T1 sequence (Q13535 14-953): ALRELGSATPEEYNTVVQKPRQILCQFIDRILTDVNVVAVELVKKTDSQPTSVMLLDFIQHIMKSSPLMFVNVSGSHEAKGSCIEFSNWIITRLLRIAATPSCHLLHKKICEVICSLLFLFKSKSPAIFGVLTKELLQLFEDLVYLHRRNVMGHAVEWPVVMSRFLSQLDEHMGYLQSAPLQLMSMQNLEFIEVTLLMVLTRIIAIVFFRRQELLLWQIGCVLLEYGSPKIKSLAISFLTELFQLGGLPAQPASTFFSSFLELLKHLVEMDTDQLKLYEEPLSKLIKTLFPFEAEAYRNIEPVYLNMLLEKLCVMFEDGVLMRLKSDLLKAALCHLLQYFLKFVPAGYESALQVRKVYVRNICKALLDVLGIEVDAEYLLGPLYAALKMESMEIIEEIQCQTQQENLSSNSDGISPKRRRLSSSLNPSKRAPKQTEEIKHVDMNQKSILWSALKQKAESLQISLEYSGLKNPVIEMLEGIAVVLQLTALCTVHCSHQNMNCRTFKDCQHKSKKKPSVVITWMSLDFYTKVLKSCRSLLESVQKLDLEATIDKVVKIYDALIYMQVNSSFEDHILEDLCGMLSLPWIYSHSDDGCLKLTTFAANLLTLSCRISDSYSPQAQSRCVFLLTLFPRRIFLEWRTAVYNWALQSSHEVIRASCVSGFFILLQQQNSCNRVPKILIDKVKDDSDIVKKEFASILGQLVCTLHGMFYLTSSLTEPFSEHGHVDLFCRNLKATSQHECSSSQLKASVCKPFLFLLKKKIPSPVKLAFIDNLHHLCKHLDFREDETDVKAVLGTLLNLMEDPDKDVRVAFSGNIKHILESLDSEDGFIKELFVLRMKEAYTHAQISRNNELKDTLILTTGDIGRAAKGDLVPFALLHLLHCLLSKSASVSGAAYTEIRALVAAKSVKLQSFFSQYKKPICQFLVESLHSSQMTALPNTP

Compound `C[C@@H]1COCCN1c1nc2c(cnn2-c2cc[nH]n2)c2c1CCN2S(N)(=O)=O` [US20240025899, Compound 5] came in with an IC50 of 6.5 nM.

The compound `C[C@@H]1COCCN1c1nc2c(cnn2-c2cc[nH]n2)c2c1CCN2C` [US20240025899, Compound 12] displayed an IC50 of 14 nM.
